Data set [1] concerns H460. Description: Internalization assay, flow cytometry, H460. The format is cell-based, human. To be noted: FITC-conjugated CIGB-552 5 and 50 μM, 1 h. Here is the method: (§1) Cells were seeded in 12-well plates (1 × 10^5 cells/well) and cultured in either D-MEM or RPMI supplemented with Glutamax, 10% (v/v) FBS, at 37 °C for 24 h. For those samples where internalization was analyzed by microscopy, round coverslips were placed into the wells prior to cell seeding. Subsequently, FITC-conjugated CIGB-552, was added to the cells to a final concentration of 5 μM or 50 μM and was incubated for 1 h at either 4 °C or 37 °C. For flow cytometry readout, culture medium was removed, cells were washed using phosphate-buffered saline (PBS) and surface-bound FITC-peptide was quenched with 0.4% (w/v) Trypan Blue solution. Cells were trypsinized and samples were acquired using Cyan ADP Flow Cytometer equipped with a 488 nm laser and a FL1 emission filter (530/40 nm). For data acquisition and analysis Summit v4.3 (Beckman Coulter, Fullerton, CA, USA) and FlowJo v.7.6.5 software (BD, Ashland, OR, USA) were used. For microscopy assays, cells were fixed in 4% (w/v) paraformaldehyde (PFA) for 15min, permeabilized using 0.2% (v/v) Tween 20 solution in PBS, and nuclei were stained using TOPRO-3 (1 μM, Life Technologies) and CellMask^TM membrane marker (1:2000, Life Technologies).
Data was expressed as the mean ± Standard Deviation of triplicates of one representative experiment, three independent experiments were executed. Statistic calculations were performed using Statistica software (STATSOFT, Hamburg, Germany). Differences were considered statistically significant when p < 0.05 using Mann-Whitney U Test.
In general terms: Flow cytometry measures light scatter and fluorescence of single cells or particles in a stream.

Data set [2] concerns HT-29. The data set is described as follows: Internalization assay, flow cytometry, HT-29. The format is cell-based, human. To be noted: FITC-conjugated CIGB-552 5 and 50 μM, 1 h. As to the method:
as §1
(§2) Data was expressed as the mean ± Standard Deviation of triplicates of one representative experiment, three independent experiments were executed. […]

Data set [3] deals with MCF-7. Description: Internalization assay, flow cytometry, MCF-7. It counts as cell-based, human. To be noted: FITC-conjugated CIGB-552 5 and 50 μM, 1 h. As to the method: as §1, §2
For data set [4], the system named is H460. The conditions noted are these: H460 cell line; read-out: cytotoxicity, IC50 value; cited from earlier work. From the text:
Table 1 CIGB-552 cytotoxicity in H460, HT-29 and MCF-7 cell lines (expressed by the IC50 value in μM); D-amino acids are indicated in small and italic characters. | column: H460

The test system of data set [5] is HT-29. The conditions noted are these: HT-29 cell line; read-out: cytotoxicity, IC50 value; cited from earlier work. From the text: Table 1 CIGB-552 cytotoxicity in H460, HT-29 and MCF-7 cell lines (expressed by the IC50 value in μM); D-amino acids are indicated in small and italic characters. | column: HT-29
Data set [6] concerns MCF-7. To be noted: MCF-7 cell line; read-out: cytotoxicity, IC50 value; cited from earlier work. From the text:
Table 1 CIGB-552 cytotoxicity in H460, HT-29 and MCF-7 cell lines (expressed by the IC50 value in μM); D-amino acids are indicated in small and italic characters. | column: MCF-7

Another data set has as its target T1, COMMD1 protein (Homo sapiens, UniProt Q8N668).
T1 construct: Venus fragment (Venus 1 or Venus 2); expressed in transfected cells; host or cells: MCF-7 and H460 cells, co-transfected with pCDNA3.1 Venus 1 / Venus 2 plasmids using Lipofectamine 2000
Description: Protein complementation assay (PCA), Venus. The conditions noted are these: MCF-7 and H460 cells co-transfected with Venus 1 / Venus 2 plasmids containing COMMD1 or L2; confocal microscopy. It counts as cell-based. As to the method:
L2 peptide, which was chemically modified in its primary structure to generate the CIGB-552, was used for the protein complementation assay. Cells were seeded in 12-well plates containing round coverslips (1 × 10^5 cells/well) and cultured in either DMEM or RPMI supplemented with Glutamax, 10% (v/v) FBS, at 37 °C for 24 h. Cells were co-transfected with the plasmids pCDNA3.1 Venus 1 and pCDNA3.1 Venus 2 each one containing either COMMD1 protein or L2 peptide. Transfection was performed with Lipofectamine 2000 (Thermo Fisher, Waltham, MA, USA) using a ratio of 1:2 DNA:lipofectamine ([…]). […]
All images were taken using laser confocal microscope Leica TCS SP5 equipped with a 63X NA 1.42 oil immersion objective (Leica Microsystems, Wetzlar, Germany). […] Quantification of the number of fully loaded cells was performed using 10 single optical sections for each cell line by using the Manual Counting plugin provided in Icy 1.9.5.1v imaging software. In order to assess fluorescence intensity both in cytoplasm and nuclei, images were taken in identical conditions (laser power, photomultiplier voltage, line and frame average and zoom) for all cell lines and 10 single optical sections were used for the analysis. […]

Setting [7] is: MFI at 4 °C referred to MFI at 37 °C.

The term IC50 denotes the point on the concentration scale where inhibition reaches its midpoint.

T1 sequence (Q8N668 whole entry, the tested form may be a part): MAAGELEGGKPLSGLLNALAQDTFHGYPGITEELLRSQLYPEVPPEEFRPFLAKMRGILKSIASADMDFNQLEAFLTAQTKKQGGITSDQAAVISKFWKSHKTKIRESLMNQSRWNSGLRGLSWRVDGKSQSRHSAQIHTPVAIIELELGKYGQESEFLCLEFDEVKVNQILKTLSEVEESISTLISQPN

For the substance “Ac-HARIKpTFRRlKWKYKGKFW [CIGB-552, twenty-amino-acid novel synthetic peptide, AMP-derived, cell penetrating, pro-apoptotic through COMMD1]”, the figures for the “temperature effect on internalization” value in the data set on H460 [1] (4 °C versus 37 °C), with HT-29 [2] (4 °C versus 37 °C) and with MCF-7 [3] (4 °C versus 37 °C) were “higher reduction in internalization levels”, “higher reduction in internalization levels” and “reduction in the internalization”, respectively. The “internalization levels (median fluorescent intensity, MFI)” value with H460 [1] (37 °C, surface-bound peptide quenched with 0.4% Trypan Blue) is “highest internalization levels”. Further, the “contribution of the transduction mechanism to internalization” value is given as “less than 50%” with H460 [1] (setting [7]), “less than 50%” in the data set on HT-29 [2] (setting [7]) and “more than 50%” in the data set on MCF-7 [3] (setting [7]). In addition, the IC50 is 23 ± 8 µM in the data set on H460 [4], 166 ± 66 µM in the data set with HT-29 [5] and 338 ± 39 µM in the data set on MCF-7 [6].

In the case of HARIKPTFRRLKWKYKGKFW [L2], the “in situ interaction with COMMD1 (fluorescence emission of Venus protein)” value on COMMD1 protein is recorded as “likely to interact”.
